Source: PubChem BioAssay (NCI)
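Exposure lasted 48 hours, with cells grown in 96-well plates and compounds tested at five concentrations. GI50 = concentration required for 50% inhibition of growth. TGI marks complete inhibition of growth.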

How the values were obtained:
Assay in all cases: growth of human tumour cells (NCI), 48 h
NCI-H460 lung = system: NCI-H460 lung
ACHN renal = system: ACHN renal
RXF 393 renal = system: RXF 393 renal
HCT-116 colon = system: HCT-116 colon
UACC-257 melanoma = system: UACC-257 melanoma
MDA-MB-231 breast = system: MDA-MB-231 breast
EKVX NSCLC = system: EKVX NSCLC
HS 578T breast = system: HS 578T breast
MOLT-4 leukemia = system: MOLT-4 leukemia
K-562 leukemia = system: K-562 leukemia
SR leukemia = system: SR leukemia
SNB-19 CNS = system: SNB-19 CNS
SW-620 colon = system: SW-620 colon
MCF7 breast = system: MCF7 breast
KM12 colon = system: KM12 colon
NCI-H226 lung = system: NCI-H226 lung
SK-MEL-5 melanoma = system: SK-MEL-5 melanoma
SK-MEL-2 melanoma = system: SK-MEL-2 melanoma
HOP-62 NSCLC = system: HOP-62 NSCLC
RPMI-8226 leukemia = system: RPMI-8226 leukemia
SK-OV-3 ovarian = system: SK-OV-3 ovarian
UACC-62 melanoma = system: UACC-62 melanoma
MDA-MB-468 breast = system: MDA-MB-468 breast
OVCAR-3 ovarian = system: OVCAR-3 ovarian
CAKI-1 renal = system: CAKI-1 renal
DU-145 prostate = system: DU-145 prostate
A498 renal = system: A498 renal
HCC-2998 colon = system: HCC-2998 colon
HT29 colon = system: HT29 colon
SF-539 CNS = system: SF-539 CNS
OVCAR-4 ovarian = system: OVCAR-4 ovarian
NCI-H23 lung = system: NCI-H23 lung
OVCAR-5 ovarian = system: OVCAR-5 ovarian
OVCAR-8 ovarian = system: OVCAR-8 ovarian
MALME-3M melanoma = system: MALME-3M melanoma
SNB-75 CNS = system: SNB-75 CNS
HCT-15 colon = system: HCT-15 colon
SK-MEL-28 melanoma = system: SK-MEL-28 melanoma
CCRF-CEM leukemia = system: CCRF-CEM leukemia
COLO 205 colon = system: COLO 205 colon
BT-549 breast = system: BT-549 breast
M14 melanoma = system: M14 melanoma
PC-3 prostate = system: PC-3 prostate
SF-268 CNS = system: SF-268 CNS
NCI-H522 lung = system: NCI-H522 lung
NCI/ADR-RES ovarian = system: NCI/ADR-RES ovarian
786-0 renal = system: 786-0 renal
U251 CNS = system: U251 CNS
TK-10 renal = system: TK-10 renal
UO-31 renal = system: UO-31 renal
HOP-92 NSCLC = system: HOP-92 NSCLC
HL-60(TB) leukemia = system: HL-60(TB) leukemia
SF-295 CNS = system: SF-295 CNS
A549 NSCLC = system: A549 NSCLC
SN12C renal = system: SN12C renal
MDA-MB-435 = system: MDA-MB-435
IGROV1 ovarian = system: IGROV1 ovarian
LOX IMVI melanoma = system: LOX IMVI melanoma
T-47D breast = system: T-47D breast

COc1cnc2c(c1)C(=O)c1c-2n(CCCNC(C)C)c(=O)c2cc(OC)c(OC)cc12
GI50 (NCI-H460 lung): 0.3 µM
TGI (NCI-H460 lung): 11.9 µM
GI50 (ACHN renal): 1.75 µM
TGI (ACHN renal): 13.7 µM
GI50 (RXF 393 renal): 1.35 µM
TGI (RXF 393 renal): 5.71 µM
GI50 (HCT-116 colon): 1.02 µM
TGI (HCT-116 colon): 12.8 µM
GI50 (UACC-257 melanoma): 12 µM
TGI (UACC-257 melanoma): 25.2 µM
GI50 (MDA-MB-231 breast): 3.35 µM
TGI (MDA-MB-231 breast): 17.9 µM
GI50 (EKVX NSCLC): 10.4 µM
TGI (EKVX NSCLC): 22.4 µM
GI50 (HS 578T breast): 11.2 µM
TGI (HS 578T breast): 32.6 µM
GI50 (MOLT-4 leukemia): 0.107 µM
TGI (MOLT-4 leukemia): 5.59 µM
GI50 (K-562 leukemia): 0.496 µM
TGI (K-562 leukemia): 22.5 µM
GI50 (SR leukemia): 0.369 µM
TGI (SR leukemia): 4.85 µM
GI50 (SNB-19 CNS): 1.2 µM
TGI (SNB-19 CNS): 12.8 µM
GI50 (SW-620 colon): 0.946 µM
TGI (SW-620 colon): 20.5 µM
GI50 (MCF7 breast): 0.222 µM
TGI (MCF7 breast): 11.9 µM
GI50 (KM12 colon): 8.02 µM
TGI (KM12 colon): 21.9 µM
GI50 (NCI-H226 lung): 2.55 µM
TGI (NCI-H226 lung): 16.6 µM
GI50 (SK-MEL-5 melanoma): 1.7 µM
TGI (SK-MEL-5 melanoma): 11.9 µM
GI50 (SK-MEL-2 melanoma): 18.5 µM
TGI (SK-MEL-2 melanoma): 37.8 µM
GI50 (HOP-62 NSCLC): 0.702 µM
TGI (HOP-62 NSCLC): 7.94 µM
GI50 (RPMI-8226 leukemia): 1.39 µM
TGI (RPMI-8226 leukemia): 14.9 µM
GI50 (SK-OV-3 ovarian): 1.52 µM
TGI (SK-OV-3 ovarian): 8.18 µM
GI50 (UACC-62 melanoma): 2.43 µM
TGI (UACC-62 melanoma): 16.1 µM
GI50 (MDA-MB-468 breast): 0.68 µM
TGI (MDA-MB-468 breast): 7.75 µM
GI50 (OVCAR-3 ovarian): 8.99 µM
TGI (OVCAR-3 ovarian): 22.6 µM
GI50 (CAKI-1 renal): 2.17 µM
TGI (CAKI-1 renal): 15.7 µM
GI50 (DU-145 prostate): 1.27 µM
TGI (DU-145 prostate): 13.5 µM
GI50 (A498 renal): 14.2 µM
TGI (A498 renal): 27.5 µM
GI50 (HCC-2998 colon): 3.09 µM
TGI (HCC-2998 colon): 16.8 µM
GI50 (HT29 colon): 1.43 µM
TGI (HT29 colon): 10.1 µM
GI50 (SF-539 CNS): 1.36 µM
TGI (SF-539 CNS): 3.76 µM
GI50 (OVCAR-4 ovarian): 2.5 µM
TGI (OVCAR-4 ovarian): 7.63 µM
GI50 (NCI-H23 lung): 0.977 µM
TGI (NCI-H23 lung): 11.3 µM
GI50 (OVCAR-5 ovarian): 12.3 µM
TGI (OVCAR-5 ovarian): 25.5 µM
GI50 (OVCAR-8 ovarian): 6.05 µM
TGI (OVCAR-8 ovarian): 22.1 µM
GI50 (MALME-3M melanoma): 11.5 µM
TGI (MALME-3M melanoma): 24 µM
GI50 (SNB-75 CNS): 0.155 µM
TGI (SNB-75 CNS): 7.49 µM
GI50 (HCT-15 colon): 1.86 µM
TGI (HCT-15 colon): 16.3 µM
GI50 (SK-MEL-28 melanoma): 16 µM
TGI (SK-MEL-28 melanoma): 29.7 µM
GI50 (CCRF-CEM leukemia): 0.256 µM
TGI (CCRF-CEM leukemia): 89.9 µM
GI50 (COLO 205 colon): 5.74 µM
TGI (COLO 205 colon): 22.6 µM
GI50 (BT-549 breast): 4.26 µM
TGI (BT-549 breast): 20.6 µM
GI50 (M14 melanoma): 4.91 µM
TGI (M14 melanoma): 20 µM
GI50 (PC-3 prostate): 6.53 µM
TGI (PC-3 prostate): 30.5 µM
GI50 (SF-268 CNS): 1.31 µM
TGI (SF-268 CNS): 19.1 µM
GI50 (NCI-H522 lung): 0.536 µM
TGI (NCI-H522 lung): 12.6 µM
GI50 (NCI/ADR-RES ovarian): 1.73 µM
TGI (NCI/ADR-RES ovarian): 14.6 µM
GI50 (786-0 renal): 5.51 µM
TGI (786-0 renal): 19.1 µM
GI50 (U251 CNS): 0.667 µM
TGI (U251 CNS): 17.2 µM
GI50 (TK-10 renal): 14.2 µM
TGI (TK-10 renal): 28 µM
GI50 (UO-31 renal): 5.88 µM
TGI (UO-31 renal): 19.7 µM
GI50 (HOP-92 NSCLC): 9.11 µM
TGI (HOP-92 NSCLC): 23.9 µM
GI50 (HL-60(TB) leukemia): 3.54 µM
TGI (HL-60(TB) leukemia): 17.2 µM
GI50 (SF-295 CNS): 0.29 µM
TGI (SF-295 CNS): 12.6 µM
GI50 (A549 NSCLC): 5.7 µM
TGI (A549 NSCLC): 23.8 µM
GI50 (SN12C renal): 4.19 µM
TGI (SN12C renal): > 100 µM
GI50 (MDA-MB-435): 6.52 µM
TGI (MDA-MB-435): 20.3 µM
GI50 (IGROV1 ovarian): 10.8 µM
TGI (IGROV1 ovarian): 23.3 µM
GI50 (LOX IMVI melanoma): 1.19 µM
TGI (LOX IMVI melanoma): 4.6 µM
GI50 (T-47D breast): 4.97 µM
TGI (T-47D breast): 22.2 µM
